The record followed here is US8906864B2, “Binding domains of proteins of the repulsive guidance molecule (RGM) protein family and functional fragments thereof, and their use” (AbbVie Deutschland GmbH & Co. KG, priority 2005, dated 2014).

Common to all, as to assay type: cell-based
Assay [1] deals with human Ntera nerve cells. The assay can be described thus: NTera nerve fiber growth assay (assay method 2). The following applies: for activity of RGM A peptides in NTera growth assay: FIG. 6A and 6B; for inhibition of nerve fiber growth of human NTera cells: peptide concentration 30 μg/ml (higher concentration); for activity in NTera nerve fiber growth assay: peptide concentration 10 μg/ml (FIG. 6B). How it is done:
The human pluripotent carcinoma cell line Ntera (DSMZ ACC527) is an established cell culture model. In this case, axons grow out of cell aggregates and form a corona of axons around the respective aggregate.
For this purpose, 2.5×10^6 Ntera cells were seeded in a 175 cm^2 bottle and differentiated in 10 μM retinoic acid (Sigma) (medium: D-MEM (Gibco/Invitrogen 31966-021), 10% fetal calf serum, 100 u/ml penicillin, 100 μg/ml streptomycin (both Gibco/Invitrogen)) for 3 weeks. Differentiated cells were then divided 1:6 in new bottles and cultured without retinoic acid for a further 2 days. Neuronal cells adhering to the resulting cell lawn were detached by capping and aggregated by slow shaking in Neurobasal medium (Neurobasal Medium (Gibco/Invitrogen 21103-049), 2 mM L-glutamine (Gibco/Invitrogen 25030-024), 100 u/ml penicillin, 100 μg/ml streptomycin (both Gibco/Invitrogen) in a shaken flask overnight (in an incubator).
The next day, Ntera aggregates were seeded in poly-D-lysine and laminin (Sigma) (10 μg/ml) 96-well plates (Biocoat Poly-D-Lysine Cellware 96-Well Black/Clear Plate (Becton Dickinson #35 6640). The inhibitory effect of RGM peptides and fragments was analyzed by adding various concentrations of the substances to be tested.

Assay [2] deals with rat cortical neurons. Nature of the assay: Neuronal outgrowth test with rat cortical neurons (assay method 1). On the procedure: The effect of RGM peptides in vitro was investigated by carrying out neuronal outgrowth tests. For this purpose, rat cortical neurons were prepared using the following media:
Cortical neurons were obtained by sacrificing pregnant rats by cervical dislocation, opening the abdominal cavity thereof, removing the uterus with the embryos (embryonic day 18 (E18)) and washing in PBS. Microdissection scissors were used to cut open the uterus longitudinally, and the embryos were removed and exposed. The embryos were sacrificed by throat-cutting, the brain was removed and the forebrain cortex was dissected. […] The cells were counted in a Neubauer counting chamber, and the number of cells was adjusted to about 400 000 cells/0.2 ml in MM and preaggregated. […] 24-48 h later, the axonal outgrowths were initially assessed by examination under a light microscope, and the cultures were then fixed by adding 100 μl of 4% paraformaldehyde solution and stored at 4° C. for at least 12 hours. […] The fluorescence-labeled secondary antibody (Jackson ImmunoResearch, Cy3 conjugated Affinity Pure Donkey Anti Mouse #715-165-151) was diluted 1:500 in 1% bovine serum albumin solution in PBS, which additionally comprised 0.5 μg/ml bisbenzimide (H33258) to visualize the cell nuclei, and 50 μl of this dilution were incubated per well at room temperature for 1-2 h or at 4° C. overnight. […]

For assay [3], the system named is Neogenin-expressing HEK293 cells. The assay can be described thus: Fragment analysis with neogenin-expressing HEK293 cells (semiquantitative dot-blot of producing clones). The following applies: stably transfected HEK293 clones. An excerpt:
It was previously known that the active, growth-inhibiting activity of the RGM A protein from chickens is located in the region between amino acid position 150 and 350.
Fragments of the human RGM A protein which cover this range were therefore prepared. HEK293 cells which carry the RGM receptor endogenously on their surface were then transfected with these fragments in order to prepare clonal cell cultures which produce the individual protein fragments and release them into the culture medium. All the fragments were produced as fusion proteins with attached alkaline phosphatase enzyme. The presence of the active domain in these cells should make itself noticeable by: less cellular proliferation, increased cell death and/or altered cell-substrate adhesion.
Increased cell death and less proliferation have, of course, a direct effect on the produced amount of the active fragment. The amount of the produced fragments was assessed with the aid of a semiquantitative dot-blot assay.
The RGM A fragments prepared as in preparation example 1 were introduced into HEK293 cells. […]
In addition, the ratio of strongly to non-producing clones was determined.

“Also recorded” adds a separate entry of the source. Where no end group is shown, it is not given here.

On to “Peptide Down-1: RGM A peptide 260-275, KITEKVSGQHVEIQAK (SEQ ID NO: 26)”, for which the “activity of RGM A peptides in NTera growth assay” value (“activity of RGM A peptides” below) in assay [1] (overall result) was “large reduction in nerve fiber growth”. Moreover, the “inhibition of nerve fiber growth of human NTera cells” value (“inhibition” below) in assay [1] is “inhibited nerve fiber growth highly significantly”.

For “Peptide 4: synthetic RGM A peptide AA 378-400 of SEQ ID NO: 2 (CVFDLLTTGDVNFTLAAYYALED; listed as Homo sapiens)”, in assay [1], the “inhibition” value is listed as “not”. Further, the “activity on nerve fiber growth of cortical neurons (axon growth index)” value in assay [2] (concentrations 0 to 30 μg/ml (FIG. 3C)) is “no activity”. Moreover, the “influence on nerve fiber growth of rat neuronal cells” value in assay [2] (peptide concentration 10 μg/ml, fluorescence micrographs (FIG. 3A)) is “inactive”.

In the case of “Peptide 5-Ak: RGM A peptide 242-259, AFVDGSKNGGDKHGANSL (SEQ ID NO: 30)”, the “activity of RGM A peptides” value in assay [1] (overall result) is “Inactive or only weakly active”. Also, the “activity in NTera nerve fiber growth assay” value in assay [1] was “inactive”.

“Fragment 5: human RGM A fragment amino acids 369-422, expressed in HEK293 as AP fusion protein (PVEDLYYQACVFDLLTTGDVNFTLAAYYALEDVKMLHSNKDKLHLYERTRDLPG; also: alkaline phosphatase fusion; UniProt Q96B86 369-422, looked up, fragment)”: the “Proportion of strongly producing cell clones” value in assay [3] worked out at 16%. Also, the “Ratio "S producer" versus "0 producer"” value in assay [3] (low value = active fragment) came to 0.63. The “activity (inhibitory for axon growth) of RGM A fragments in NTera outgrowth assay” value in assay [1] (stated concentrations (FIG. 5B), overall result) is “inactive”.

In the case of “Peptide 7-Ak: RGM A peptide 217-234, TIIFKNFQECVDQKVYQA (SEQ ID NO: 29)”, the “activity of RGM A peptides” value in assay [1] (overall result) was “Inactive or only weakly active”. Also, in assay [1], the “activity in NTera nerve fiber growth assay” value was “inactive” and the “inhibition” value is recorded as “distinct trend in the direction of inhibition of nerve fiber growth; also recorded: tendency to inhibit growth”.

On to “Peptide 6-Ak: RGM A peptide 300-316, VVNAVEDWDSQGLYLC (SEQ ID NO: 28)”, for which the “activity of RGM A peptides” value in assay [1] (overall result) was “Inactive or only weakly active”. In assay [1], the “activity in NTera nerve fiber growth assay” value was “inactive” and the “inhibition” value is “distinct trend in the direction of inhibition of nerve fiber growth; also recorded: tendency to inhibit growth”.

As for “Peptide Up-1: RGM A peptide 276-291, YIGTTIVVRQVGRYLT (SEQ ID NO: 27)”, the “activity of RGM A peptides” value in assay [1] (overall result) is given as “large reduction in nerve fiber growth”. Moreover, the “inhibition” value in assay [1] is on record as “inhibited nerve fiber growth highly significantly”.
